Data reported in the supplement of paper PMC10307832.

Columns and labels:
Experiment in all cases: relative viability (nuclei count vs DMSO), 5 days (fraction); higher = more cells survive
Erlotinib + Phenformin = compound: C#Cc1cccc(Nc2ncnc3cc(OCCOC)c(OCCOC)cc23)c1 [Erlotinib] + N=C(N)NC(=N)NCCc1ccccc1 [Phenformin] (partner 250 µM)
How it was run: (§1)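 After 5 days of treatment, lung cancer cells in 1536-well plates were fixed and stained in a single step (final 0.05% Triton X-100, 1% formaldehyde, 1 ug/ml Hoechst) and their nuclei counted on 4× images. Treatment had been applied by pin tool the day after seeding as one drug alone or as a fixed anchor-drug dose with five library-drug doses (not always all listed) in √10 steps. Relative viability is the nuclei count of treated wells divided by that of vehicle wells, and values are medians of duplicate plates.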

Erlotinib + Vorinostat = compound: C#Cc1cccc(Nc2ncnc3cc(OCCOC)c(OCCOC)cc23)c1 [Erlotinib] + O=C(CCCCCCC(=O)Nc1ccccc1)NO [Vorinostat] (partner 1 µM)
How it was run: as §1

AT9283 + Navitoclax = compound: O=C(Nc1c[nH]nc1-c1nc2ccc(CN3CCOCC3)cc2[nH]1)NC1CC1 [AT9283] + CC1(C)CCC(c2ccc(Cl)cc2)=C(CN2CCN(c3ccc(C(=O)NS(=O)(=O)c4ccc(N[C@H](CCN5CCOCC5)CSc5ccccc5)c(S(=O)(=O)C(F)(F)F)c4)cc3)CC2)C1 [Navitoclax] (partner 0.5 µM)
How it was run: as §1

AT9283 + Crizotinib = compound: O=C(Nc1c[nH]nc1-c1nc2ccc(CN3CCOCC3)cc2[nH]1)NC1CC1 [AT9283] + C[C@@H](Oc1cc(-c2cnn(C3CCNCC3)c2)cnc1N)c1c(Cl)ccc(F)c1Cl [Crizotinib] (partner 1 µM)
How it was run: as §1

AT9283 + Phenformin = compound: O=C(Nc1c[nH]nc1-c1nc2ccc(CN3CCOCC3)cc2[nH]1)NC1CC1 [AT9283] + N=C(N)NC(=N)NCCc1ccccc1 [Phenformin] (partner 250 µM)
How it was run: as §1

Cell Line | relative viability (Erlotinib + Phenformin; first compound 0.02 µM) | relative viability (Erlotinib + Phenformin; first compound 0.2 µM) | relative viability (Erlotinib + Phenformin; first compound 0.6325 µM) | relative viability (Erlotinib + Phenformin; first compound 2 µM) | relative viability (Erlotinib + Vorinostat; first compound 0.02 µM) | relative viability (Erlotinib + Vorinostat; first compound 0.2 µM) | relative viability (Erlotinib + Vorinostat; first compound 0.6325 µM) | relative viability (Erlotinib + Vorinostat; first compound 2 µM) | relative viability (AT9283 + Navitoclax; first compound 0.003 µM) | relative viability (AT9283 + Navitoclax; first compound 0.03 µM) | relative viability (AT9283 + Navitoclax; first compound 0.09487 µM) | relative viability (AT9283 + Navitoclax; first compound 0.3 µM) | relative viability (AT9283 + Crizotinib; first compound 0.003 µM) | relative viability (AT9283 + Crizotinib; first compound 0.03 µM) | relative viability (AT9283 + Crizotinib; first compound 0.09487 µM) | relative viability (AT9283 + Crizotinib; first compound 0.3 µM) | relative viability (AT9283 + Phenformin; first compound 0.003 µM) | relative viability (AT9283 + Phenformin; first compound 0.03 µM) | relative viability (AT9283 + Phenformin; first compound 0.09487 µM) | relative viability (AT9283 + Phenformin; first compound 0.3 µM)
ChaGo-K-1 | 0.507 | 0.445 | 0.482 | 0.437 | 0.784 | 0.721 | 0.82 | 0.74 | 0.694 | 0.746 | 0.244 | 0.299 | 0.973 | 0.416 | 0.343 | 0.387 | 0.476 | 0.341 | 0.235 | 0.204
LOU-NH91 | 0.449 | 0.481 | 0.44 | 0.473 | 0.803 | 0.713 | 0.785 | 0.703 | 0.735 | 0.605 | 0.37 | 0.283 | 0.686 | 0.679 | 0.52 | 0.429 | 0.658 | 0.673 | 0.454 | 0.371
LXF-289 | 0.54 | – | 0.496 | 0.476 | 0.824 | 0.762 | 0.66 | 0.758 | 0.93 | 0.665 | 0.123 | 0.133 | 0.829 | 0.511 | 0.151 | 0.138 | 0.528 | 0.447 | 0.0782 | 0.0825
COR-L23 | 0.439 | 0.452 | 0.448 | 0.416 | 0.583 | 0.423 | 0.489 | 0.362 | 0.964 | 0.301 | 0.123 | 0.126 | 0.616 | 0.185 | 0.118 | 0.158 | 0.45 | 0.221 | 0.128 | 0.12
NCI-H23 | – | 0.662 | 0.684 | 0.72 | 0.704 | 0.502 | 0.666 | 0.485 | 0.741 | 0.538 | 0.423 | 0.174 | 0.458 | 0.326 | 0.299 | 0.189 | 0.811 | 0.744 | 0.413 | 0.297
NCI-H1975 | 0.415 | 0.377 | 0.405 | 0.38 | 0.722 | 0.726 | 0.701 | 0.58 | 1.11 | 1.18 | 0.971 | 0.282 | 0.945 | 0.903 | 0.695 | 0.348 | 0.418 | 0.403 | 0.356 | 0.183
NCI-H3122 | 0.361 | 0.388 | 0.392 | 0.377 | 0.93 | 1.14 | 1.05 | 0.953 | 1.01 | 0.902 | 0.359 | 0.298 | 0.291 | 0.259 | 0.216 | 0.214 | 0.359 | 0.334 | 0.203 | 0.138
NCI-H727 | 0.572 | – | 0.639 | 0.404 | 1.29 | 1.24 | 1.03 | 1.01 | 0.532 | 0.235 | 0.154 | 0.11 | 0.813 | 0.461 | 0.27 | 0.323 | 0.39 | 0.447 | 0.298 | 0.39
EMC-BAC-2 | 0.578 | 0.571 | 0.559 | 0.502 | – | 0.543 | 0.524 | 0.446 | 1.23 | 0.785 | 0.199 | 0.25 | 0.67 | 0.36 | 0.163 | 0.151 | 0.565 | 0.251 | 0.208 | 0.163
NCI-H2085 | 0.762 | 0.493 | 0.528 | 0.472 | 0.78 | 0.649 | 0.724 | 0.535 | 1.05 | 0.815 | 0.671 | 0.244 | 0.865 | 0.693 | 0.471 | 0.328 | 0.702 | 0.664 | 0.597 | 0.264
NCI-H1355 | 0.474 | 0.493 | 0.458 | 0.414 | 0.668 | 0.633 | 0.602 | 0.521 | 1.07 | 0.806 | 0.46 | 0.158 | 1.03 | 0.992 | 0.529 | 0.199 | 0.478 | 0.449 | 0.362 | 0.238
NCI-H1755 | 0.614 | – | 0.642 | 0.582 | 0.827 | 0.762 | 0.772 | 0.716 | 0.988 | 0.876 | 0.482 | 0.281 | 0.891 | 0.718 | 0.433 | 0.385 | 0.579 | 0.626 | 0.394 | 0.422
COR-L 105 | 0.525 | 0.245 | 0.322 | 0.216 | 0.776 | 0.564 | 0.425 | 0.377 | 0.83 | 0.27 | 0.293 | 0.281 | 0.73 | 0.326 | 0.274 | 0.237 | 0.513 | 0.2 | 0.303 | 0.223
NCI-H647 | 0.586 | 0.476 | 0.632 | 0.353 | 0.735 | 0.485 | 0.556 | 0.565 | 1.03 | 0.542 | 0.125 | 0.0857 | 1.01 | 0.357 | 0.201 | 0.121 | 0.525 | 0.305 | 0.145 | 0.0997
